We go through six molecules from publication PMC9053816, “A polypeptide model for toxic aberrant proteins induced by aminoglycoside antibiotics” (PLoS ONE, 2022).

“Also recorded” adds a separate entry of the source. Like-named read-outs stand apart in the source and are kept apart here.

One experiment concerns E. coli BL21 cells. Description: Hoechst 33342 uptake by fluorescence microscopy. The format is cell-based, Escherichia coli. Here is the method: (§1) Culture samples (0.3 ml) collected at the indicated times were centrifuged and the cell pellets were resuspended in 20–100 μl of Tris-buffered saline pH 8 (TBS) and held on ice. Cell suspensions were then stained with 1 μl of Hoechst 33342 (10 mg/ml stock solution was first diluted 1:100 in TBS). After incubation for 10 min on ice, 2 μl samples of cell suspension were mounted on coverslides using agarose blocks as described. Cells were then examined by epi-fluorescence microscopy, using a Zeiss Axiophot and a 63X oil immersion lens. Exposure times for 2-channel images (both transmitted and reflected light) were set automatically using on-board Zen 2011 software. In some experiments as noted, exposure times for reflected light images were fixed at 1 s, for comparison of relative fluorescence intensity. Brightfield images of E. coli cell aggregates were taken with a Nikon Eclipse T2 inverted microscope using a 20X lens and laser-based LED white light source, located at the Brookhaven National Laboratory Center for Functional Nanomaterials.

Experiment [1] deals with E. coli BL21. Kind of experiment: Cell viability (colony counts / spot dilution on LB agar). Format: cell-based, Escherichia coli. As to the method: (§2) All growth studies were performed in Luria-Bertani (LB) broth containing Penicillin G (150 μg/ml), using E. coli BL21 as the host strain except where noted. Frozen stocks of cell strains were first grown overnight at 30°C, without shaking, in 2 ml of LB containing PenG. The starter cultures were then diluted 1:100 in 3.5 ml of LB containing PenG, in plastic 15x90 mm tubes with loose-fitting caps, and the tubes were then tilted about 15–20 degrees from vertical and incubated at 37°C with shaking (300 rpm). Cell growth for all experiments except those shown in Fig 1 was monitored at the indicated times by measuring the optical density of culture samples (diluted 1:10 in saline) at 600 nm, using a Perkin Elmer Lambda 14 UV/VIS spectrophotometer and semi-micro glass cuvettes (1 ml sample volume). For the experiments shown in Fig 1, OD600 measurements were performed on 200 μl of undiluted culture using a 96-well plate reader. […] To measure cell viability, culture samples were serially diluted in LB broth, mixed with molten top agar and plated on LB agar containing PenG. The number of colonies was then counted after overnight incubation of plates at 37°C.
Supplementary file pone.0258794.s001.tif: S1 Fig Bactericidal effect of Kanamycin. Samples of an E. coli BL21 culture growing in LB broth were treated at early log phase (T = 0) with Cm (30 μg/ml) or Kan (50 μg/ml). After further incubation at 37°C for 30 or 60 min, samples of the untreated (UT) and antibiotic-treated cultures were diluted (serial 1:10), and 3 μl of each dilution was spotted onto an LB agar plate. The plate was then photographed after incubation overnight at 37°C. (TIF) Click here for additional data file.

The subject of experiment [2] is E. coli BL21 nucleoids. Kind of experiment: Nucleoid conformation by fluorescence microscopy. Format: cell-based, Escherichia coli. Particulars: for Nucleoid conformation: H33342 staining, BL21 (Fig 6, S6 Fig). Here is the method: as §1
A culture sample also was left untreated (UT) for comparison. Cell samples were then collected after further incubation for 20, 40 or 60 min, washed with PBS, stained with H33342, and mounted on glass slides under agarose pads for fluorescence microscopy using a 40X oil immersion lens. The exposure time for each image was automatically set by microscope software. Scale bar = 20 μm. (TIF) Click here for additional data file.

For experiment [3], the system named is E. coli BL21. Kind of experiment: Growth analysis (culture OD600). The format is cell-based, Escherichia coli. As to the method: as §2
For experiment [4], the system named is E. coli BL21 nucleoids. On the set-up: method as in PMID 25250841. The settings on record: transcription inhibited; cited from earlier work.
Another experiment concerns E. coli DnaK. The settings on record: by comparison with NR and σ32 peptides; cited from earlier work.

Description for σ32 transcription factor: E, Western blot analysis of σ32 levels in cells following exposure to the indicated antibiotics for 20, 60, or 120 min as indicated. Cell extract from a non-induced culture was loaded in lane 1.
Equal volumes of cell cultures were centrifuged, and cell pellets were resuspended directly in 2X Laemmli sample buffer at a concentration of 5 OD600 units per ml based on culture OD600 at the time of sampling. To reduce viscosity, samples were sonicated using a cuphorn sonicator or passed through a 27-gauge needle prior to loading on SDS-polyacrylamide gels. Proteins were visualized either by staining gels directly with Coomassie Blue or after semi-dry electroblotting to immobilon membranes for Western blot analysis. Anti-σ32 monoclonal antibodies were purchased from BioLegend, San Diego, CA. Rabbit anti-DnaK and DnaJ serum was kindly provided by B. Bukau. Anti-GroEL antibodies were purchased from Sigma-Aldrich.
An aliquot of culture also was left untreated (NI) for comparison. Cultures were then incubated at 37°C with shaking, and cell growth was monitored by measuring culture optical density at 600 nm (OD600) using a microplate reader. B, samples of each culture were collected at 20, 60 and 90 min after treatment, and cells were lysed in 2X SDS-PAGE sample buffer at a concentration of 1.2 OD600 units per ml. Equal volumes of each sample were then analyzed by Western blotting, using antibodies against σ32 and σ70. Only the 20 min and 60 min samples of the Spectinomycin-treated culture were analyzed.

Consider `O=C(N[C@H](CO)[C@H](O)c1ccc([N+](=O)[O-])cc1)C(Cl)Cl` [Cm, chloramphenicol], for which the “Exposure time set automatically by camera software (H33342 fluorescence)” value in the experiment on E. coli BL21 cells (10 min after ARF48 induction or 60 min after Cm 30 or 200 μg/ml, non-induced culture 1.7 s) is 0.22 s. Moreover, the “Uptake of H33342 following exposure” value in the experiment with E. coli BL21 cells (Cm 30 or 200 μg/ml (Fig 6)) is “enhanced”. Further, the “Cell viability following growth arrest” value with E. coli BL21 [1] (30 μg/ml, samples at 0, 1, 2 and 5 h (Fig 2E)) is “remained viable for several hours”. The “Cell viability during exposure” value in the experiment on E. coli BL21 [1] (Cm 30 μg/ml, 30 or 60 min (S1 Fig)) is “fully retained”. For the same molecule, the “Cell viability at higher concentration” value in the experiment on E. coli BL21 [1] (higher concentration than 30 μg/ml (200 μg/ml, Fig 2E)) is “increasingly toxic”. The Nucleoid conformation entry in the experiment on E. coli BL21 nucleoids [2] is “radially condensed”. Moreover, the “Time until nucleoids radially condensed” value in the experiment with E. coli BL21 nucleoids [2] (after induction of expression or after exposure) is 30 to 45 min.
For the molecule `NC[C@H]1O[C@H](O[C@H]2[C@H](O)[C@@H](O[C@H]3O[C@H](CO)[C@@H](O)[C@H](N)[C@H]3O)[C@H](N)C[C@@H]2N)[C@H](O)[C@@H](O)[C@@H]1O` [Kan, kanamycin], the “σ32 concentration over time” value with σ32 transcription factor (20, 60 or 120 min of exposure (Fig 1E)) is recorded as “remained elevated”. In addition, the “σ32 level in cells” value in the experiment with σ32 transcription factor (60 min after exposure, range of doses (Fig 1D)) is “accumulated to high relative concentration”. The “Decrease of cell viability” value in the experiment on E. coli BL21 [1] (first hour of exposure, Kan 50 μg/ml (S1 Fig)) is recorded as 5–6 orders of magnitude. Also, in the experiment on E. coli BL21 nucleoids [2], the Nucleoid conformation result is reported as “only transient”. In the experiment on E. coli BL21 [3] (low dose 3 μg/ml), the Cell division result is listed as “slowed but did not completely halt cell division”.
Consider `Cc1c2c(c(O)c3c(O)cccc13)C(=O)[C@]1(O)C(=O)C(C(N)=O)=C(O)[C@@H](N(C)C)[C@@H]1C2` [aTc, anhydrotetracycline], for which, in the experiment on E. coli BL21 [3] (0.2 μg/ml in culture medium), the Cell growth entry was “not inhibited; also recorded: does not inhibit growth”.
With `CO[C@H]1/C=C/O[C@@]2(C)Oc3c(C)c(O)c4c(O)c(c(/C=N/N5CCN(C)CC5)c(O)c4c3C2=O)NC(=O)/C(C)=C\C=C\[C@H](C)[C@H](O)[C@@H](C)[C@@H](O)[C@@H](C)[C@H](OC(C)=O)[C@@H]1C` [rifampicin], the Nucleoid conformation entry in the experiment on E. coli BL21 nucleoids [4] is listed as “transient condensation”.
`CN[C@@H]1[C@H](O)[C@H](NC)[C@H]2O[C@@]3(O)C(=O)C[C@@H](C)O[C@H]3O[C@@H]2[C@H]1O` [spectinomycin]: the “σ32 levels following exposure” value in the experiment with σ32 transcription factor (non-resistant cells, 20 μg/ml, 20 and 60 min (S2 Fig)) is listed as “unchanged”.
With Kemptide, the “Recognition by DnaK (earlier studies)” value in the experiment with E. coli DnaK is “poorly recognized”.
